Laboratory results from patent US20120028985A1, “COMBINATIONAL THERAPY FOR TREATING AUTOIMMUNE DISEASE” (4SC AG, priority 2008, published 2012).
Entries after “also recorded” stand apart in the source; their conditions may differ. Marks after values point to notes of the source that are not given here.

What was measured:
DBA1/J mice = experiment: Liver histology in collagen induced arthritis mice; type: in vivo; conditions: individual mouse; diseased mice; po, MTX 2.5 mg/kg, Formula (II) 50 mg/kg
Excerpt: Dosing is started, PO (per oral) once daily for 14 days.

Beagle dogs [1] = tested on: Beagle dogs
Excerpt: The animals were randomly allocated to five test groups employing a pseudo-random body weight stratification procedure that yielded groups with approximately equal mean body weights. […] A special focus of the study was to study the influence of the combination treatment on liver toxicity.

Beagle dogs [2] = experiment: 13-week repeat dose toxicity in Beagle dogs, combination with methotrexate: clinical biochemistry (ALAT, ASAT); type: in vivo; conditions: for ALAT, change as compared to the control group 1 / ASAT, change as compared to the control group 1: 25 mg Formula (II)/kg/day and/or 10/2.5 mg MTX/kg/week, p.o.
Protocol: For laboratory examinations blood samples were taken from the vena cephalica or vena saphena magna from animals fasted overnight. Serum samples were collected into tubes for biochemical tests. Clinical biochemistry parameters from venous blood were determined at the times listed below:
Prior to study start: all animals of a pool of 52 dogs […]
At the end of the recovery period: all 8 recovery animals included in this study
Clinical biochemistry parameters (e.g. bile acids, alanine aminotransferase=ALAT, alkaline phosphatise=aP, aspartate aminotransferase=ASAT, gamma-glutamyl-transferase=Gamma-GT, glutamate dehydrogenase=GLDH, creatine kinase=CK) were measured using KONELAB 30i instrument (Thermo Fisher Scientific, 63303 Dreieich, Germany) as U/L (unit/liter) serum.

[3] = Toxicokinetics of formula (II) and methotrexate after individual and concomitant administration to Beagle dogs; type: in vivo; conditions: Beagle, dog, plasma, po, mean
[4] = female, 2.5 mg/kg, Group 3, methotrexate alone 2.5 mg/kg (reduced from 10), week 13, female Beagle dogs
[5] = female, 2.5 mg/kg, Group 4 (+10SC, in combination with 10 mg/kg formula (II)), methotrexate 2.5 mg/kg (reduced from 10), week 13, female Beagle dogs
[6] = female, 2.5 mg/kg, Group 5 (+25SC, in combination with 25 mg/kg formula (II)), methotrexate 2.5 mg/kg (reduced from 10), week 13, female Beagle dogs
[7] = female, 10 mg/kg, Group 3, methotrexate 10 mg/kg alone, day 1, female Beagle dogs
[8] = female, 10 mg/kg, Group 4 (+10SC, in combination with 10 mg/kg formula (II)), methotrexate 10 mg/kg, day 1, female Beagle dogs
[9] = female, 10 mg/kg, Group 5 (+25SC, in combination with 25 mg/kg formula (II)), methotrexate 10 mg/kg, day 1, female Beagle dogs
[10] = male, 2.5 mg/kg, Group 3, methotrexate alone 2.5 mg/kg (reduced from 10), week 13, male Beagle dogs
[11] = male, 2.5 mg/kg, Group 4 (+10SC, in combination with 10 mg/kg formula (II)), methotrexate 2.5 mg/kg (reduced from 10), week 13, male Beagle dogs
[12] = male, 2.5 mg/kg, Group 5 (+25SC, in combination with 25 mg/kg formula (II)), methotrexate 2.5 mg/kg (reduced from 10), week 13, male Beagle dogs
[13] = male, 10 mg/kg, Group 3, methotrexate 10 mg/kg alone, day 1, male Beagle dogs
[14] = male, 10 mg/kg, Group 4 (+10SC, in combination with 10 mg/kg formula (II)), methotrexate 10 mg/kg, day 1, male Beagle dogs
[15] = male, 10 mg/kg, Group 5 (+25SC, in combination with 25 mg/kg formula (II)), methotrexate 10 mg/kg, day 1, male Beagle dogs

For `CN(Cc1cnc2nc(N)nc(N)c2n1)c1ccc(C(=O)N[C@@H](CCC(=O)O)C(=O)O)cc1` [MTX, methotrexate, reference compound], the “Liver Histology, Observations” value (DBA1/J mice) was “Minimal glycogen depletion, hepatocyte; also recorded: Mild glycogen depletion, hepatocyte; also recorded: Normal; also recorded: Minimal multifocal subacute inflammation”, the Premature death (Beagle dogs [1]; Beagle dogs, 10 mg MTX/kg body weight/week, oral) was “found dead in the morning of test day 20” and the “Enteritis in the gastro-intestinal mucosa” value (Beagle dogs [1]; dog, in vivo, po) was “most pronounced”. The “Changes in the biochemical parameters” value (Beagle dogs [2]; Beagle dogs, 13 weeks oral, serum) was “pronounced and statistically significant (at p≦0.01) changes in the biochemical parameters of ALAT, ASAT, CK, GLDH as well as bile acids”, the “ALAT, change as compared to the control group 1” value (shortened to “ALAT, change”) (Beagle dogs [2]; Test day 37, females) was “+190%” and the “ASAT, change as compared to the control group 1” value (“ASAT, change” below) (Beagle dogs [2]; Test day 37, females) was “+47** %”. For the same compound, the “ALAT, change” value (Beagle dogs [2]; Test day 37, males) was “none”, the “ASAT, change” value (Beagle dogs [2]; Test day 37, males) was “none” and the “ALAT, change” value (Beagle dogs [2]; Test day 93, females) was “+567%”. The “ASAT, change” value (Beagle dogs [2]; Test day 93, females) was “+34** %”, the “ALAT, change” value (Beagle dogs [2]; Test day 93, males) was “+386%” and the “ASAT, change” value (Beagle dogs [2]; Test day 93, males) was “+55** %”. For the same compound, the AUC(0-inf) [3, 4] was 2200 ng·h/mL, the Cmax [3, 4] was 500 ng/mL and the half-life [3, 4] was 2.3 h. The AUC(0-inf) [3, 5] was 1900 ng·h/mL, the Cmax [3, 5] was 400 ng/mL and the half-life [3, 5] was 2.6 h. For the same compound, the AUC(0-inf) [3, 6] was 1400 ng·h/mL, the Cmax [3, 6] was 200 ng/mL and the half-life [3, 6] was 2.7 h. It also gave an AUC(0-inf) [3, 7] of 5300 ng·h/mL, a Cmax [3, 7] of 1100 ng/mL and a half-life [3, 7] of 2.4 h. It also gave an AUC(0-inf) [3, 8] of 7500 ng·h/mL, a Cmax [3, 8] of 1700 ng/mL and an AUC(0-inf) [3, 9] of 5000 ng·h/mL. The Cmax [3, 9] was 1200 ng/mL, the half-life [3, 9] was 2 h and the AUC(0-inf) [3, 10] was 3000 ng·h/mL. For the same compound, the Cmax [3, 10] was 700 ng/mL, the half-life [3, 10] was 2.6 h and the AUC(0-inf) [3, 11] was 2000 ng·h/mL. It also gave a Cmax [3, 11] of 400 ng/mL, a half-life [3, 11] of 2 h and an AUC(0-inf) [3, 12] of 2500 ng·h/mL. For the same compound, the Cmax [3, 12] was 600 ng/mL, the half-life [3, 12] was 2.1 h and the AUC(0-inf) [3, 13] was 6400 ng·h/mL. It also gave a Cmax [3, 13] of 1800 ng/mL, a half-life [3, 13] of 1.6 h and an AUC(0-inf) [3, 14] of 6600 ng·h/mL. The Cmax [3, 14] was 1700 ng/mL, the half-life [3, 14] was 1.6 h and the AUC(0-inf) [3, 15] was 5900 ng·h/mL. For the same compound, the Cmax [3, 15] was 1200 ng/mL and the half-life [3, 15] was 2.2 h.
